Experimental findings from ChEMBL document CHEMBL1821595, “Covalent stabilization of a small molecule-RNA complex” (Bioorg Med Chem Lett, 2011) are described below.

What all share (assay type): nucleic-acid assay
The subject of experiment [1] is Nucleic Acid. The experiment is described as follows: Binding affinity to thiol-bearing RNA1 aptamer assessed as RNA1-compound conjugate formation at 1 uM by MALDI-MS 123 analysis.
The test system of experiment [2] is Nucleic Acid. The experiment is described as follows: Binding affinity to thiol-bearing RNA2 aptamer assessed as RNA2-compound conjugate formation at 1 uM after 1 hr by MALDI-MS analysis in presence of complementary DNA.
Experiment [3] deals with Nucleic Acid. The experiment is described as follows: Binding affinity to thiol-bearing RNA2 aptamer assessed as RNA2-compound conjugate formation at 1 uM by MALDI-MS 123 analysis.
The test system of experiment [4] is Nucleic Acid. Briefly: Binding affinity to thiol-bearing RNA1 aptamer assessed as RNA1-compound conjugate formation at 1 uM after 1 hr by MALDI-MS analysis in presence of complementary DNA.
Experiment [5] has as its system Nucleic Acid. Briefly: Binding affinity to thiol-bearing RNA1 aptamer assessed as RNA1-compound conjugate formation at 1 uM after 1 hr by MALDI-MS analysis in presence of non-complementary DNA and 1 uM iodoacetamide.
The test system of experiment [6] is Nucleic Acid. The experiment is described as follows: Binding affinity to thiol-bearing RNA1 aptamer assessed as RNA1-compound conjugate formation at 1 uM after 1 hr by MALDI-MS analysis in presence of non-complementary DNA.
The subject of experiment [7] is Nucleic Acid. The experiment is described as follows: Covalent binding affinity to thiol-bearing RNA1 aptamer assessed as rate constant at 1 uM by MALDI-MS analysis.
In experiment [8] the test system is Nucleic Acid. Briefly: Binding affinity to RNA1-DNA hybrid assessed as inhibition of RNA1/DNA hybrid-compound conjugate formation at 1 uM after 1 hr by MALDI-MS analysis.

Active and inactive are the calls of the source. The calls are words filed in the database; no cut-off is given here.

Take `CC(C)[C@H](NC(=O)[C@H](CO)NC(=O)CBr)C(=O)NCc1ccc(Nc2cc(-c3ccccc3)nc3c(C(=O)N[C@@H](CCCNC(=N)N)C(N)=O)cccc23)cc1`: the result in the experiment with Nucleic Acid [1] and with Nucleic Acid [3] was Active. The outcome in the experiment on Nucleic Acid [2] and in the experiment on Nucleic Acid [4] was inactive.
For the molecule `CC(C)[C@H](NC(=O)CBr)C(=O)NCc1ccc(Nc2cc(-c3ccccc3)nc3c(C(=O)N[C@@H](CCCNC(=N)N)C(N)=O)cccc23)cc1`, the result in the experiment with Nucleic Acid [1] and with Nucleic Acid [3] was Active. Besides, the outcome in the experiment on Nucleic Acid [2] and in the experiment with Nucleic Acid [4] was inactive.
Turning to `N=C(N)NCCC[C@H](NC(=O)c1cccc2c(Nc3ccc(CNC(=O)CBr)cc3)cc(-c3ccccc3)nc12)C(N)=O`, the Activity in the experiment on Nucleic Acid [5] and with Nucleic Acid [1] was 90% in each case. Moreover, the outcome with Nucleic Acid [6] and in the experiment on Nucleic Acid [8] was inactive. In addition, in the experiment on Nucleic Acid [7], the K was 5.5 ×10⁻² /min. The result with Nucleic Acid [3] was Active.
